target: human PDE1B enzyme (Homo sapiens (Human), UniProt Q01064); assay: IMAP TR-FRET PDE1B enzymatic assay; format: biochemical; settings: negative log of half-maximal molar inhibitory concentration; 200 nM FAM-cAMP; values given as bins
Outline: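 Full-length GST-tagged human PDE1B (250 pg/well) in IMAP BSA buffer with 10 U/ml calmodulin and 2.5 mM CaCl2; compound pre-incubated 5 min at room temperature, then 200 nM (final) FAM-cAMP for 30 min. IMAP binding reagent/Tb added, 1 h; TR-FRET 520/490 ratio read. IC50 from sigmoidal dose-response fit.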

Row | Structure (SMILES) | PDE1b (pIC50)
1 | Cc1oc2ncnc(NC3(C)CC3)c2c1C(=O)N1CCCC(c2ccc(F)cc2)CC1 (centres unmarked) [Example 296, 5-[4-(4-Fluorophenyl)azepane-1-carbonyl]-6-methyl-N-(1-methylcyclopropyl)furo[2,3-d]pyrimidin-4-amine] | >8
2 | COc1ncc(C2CCN(C(=O)c3c(C)oc4ncnc(NC5(C)CC5)c34)CC2)cc1F [Example 14, 5-[4-(5-Fluoro-6-methoxypyridin-3-yl)piperidine-1-carbonyl]-6-methyl-N-(1-methylcyclopropyl)furo[2,3-d]pyrimidin-4-amine] | >8
3 | Cc1oc2ncnc(NC3(C)CC3)c2c1C(=O)N1CCC(O)(c2ccc(F)cc2)C1 (centres unmarked) [Example 67, 3-(4-Fluorophenyl)-1-{6-methyl-4-[(1-methylcyclopropyl)amino]furo[2,3-d]pyrimidine-5-carbonyl}pyrrolidin-3-ol] | >8
4 | Cc1oc2ncnc(NC3(C)CC3)c2c1C(=O)N1CCC(c2ccc(O)cc2)C1 (centres unmarked) [Example 346, 4-(1-{6-Methyl-4-[(1-methylcyclopropyl)amino]furo[2,3-d]pyrimidine-5-carbonyl}pyrrolidin-3-yl)phenol] | >8

same assay, conditions: negative log of half-maximal molar inhibitory concentration; 200 nM FAM-cAMP; values given as bins; read-out: PDE1b (pIC50) (converted)

Row | Structure (SMILES) | IC50 [nM]
5 | Cc1oc2ncnc(NC3(C)CC3)c2c1C(=O)N1CCc2cc(Cl)ncc2C1 [Example 642, 5-(6-Chloro-1,2,3,4-tetrahydro-2,7-naphthyridine-2-carbonyl)-6-methyl-N-(1-methylcyclopropyl)furo[2,3-d]pyrimidin-4-amine] | 10 to 100
6 | Cc1oc2ncnc(NC3(C)CC3)c2c1C(=O)NC(C)c1ccccn1 (centres unmarked) [Example 77, 6-Methyl-4-[(1-methylcyclopropyl)amino]-N-[1-(pyridin-2-yl)ethyl]furo[2,3-d]pyrimidine-5-carboxamide] | 10 to 100
7 | Cc1cccc(CNC(=O)c2c(C)oc3ncnc(NC4(C)CC4)c23)c1 [Example 198, 6-Methyl-4-[(1-methylcyclopropyl)amino]-N-[(3-methylphenyl)methyl]furo[2,3-d]pyrimidine-5-carboxamide] | 10 to 100
8 | Cc1oc2ncnc(NC3(C)CC3)c2c1C(=O)N[C@H]1[C@@H]2COC[C@@H]21 [Example 114, 6-Methyl-4-[(1-methylcyclopropyl)amino]-N-[(1R,5S,6R)-3-oxabicyclo[3.1.0]hexan-6-yl]furo[2,3-d]pyrimidine-5-carboxamide] | 10 to 100
9 | Cc1oc2ncnc(NC3(C)CC3)c2c1C(=O)NC(C)(C)C [Example 138, N-tert-Butyl-6-methyl-4-[(1-methylcyclopropyl)amino]furo[2,3-d]pyrimidine-5-carboxamide] | 10 to 100
10 | Cc1oc2ncnc(NC3(C)CC3)c2c1C(=O)NCCc1nc2cc(F)ccc2o1 [Example 730, N-[2-(5-Fluoro-1,3-benzoxazol-2-yl)ethyl]-6-methyl-4-[(1-methylcyclopropyl)amino]furo[2,3-d]pyrimidine-5-carboxamide] | 10 to 100
11 | Cc1cnc(C2CCN(C(=O)c3c(C)oc4ncnc(NC5(C)CC5)c34)CC2)cn1 [Example 393, 6-Methyl-N-(1-methylcyclopropyl)-5-[4-(5-methylpyrazin-2-yl)piperidine-1-carbonyl]furo[2,3-d]pyrimidin-4-amine] | 10 to 100
12 | Cc1oc2ncnc(NC3(C)CC3)c2c1C(=O)N1CCC(c2ccc(OCF)cc2)C1 (centres unmarked) [Example 771, 5-{3-[4-(Fluoromethoxy)phenyl]pyrrolidine-1-carbonyl}-6-methyl-N-(1-methylcyclopropyl)furo[2,3-d]pyrimidin-4-amine] | 10 to 100
13 | COc1ccccc1OC1CN(C(=O)c2c(C)oc3ncnc(NC4(C)CC4)c23)C1 [Example 589, 5-[3-(2-Methoxyphenoxy)azetidine-1-carbonyl]-6-methyl-N-(1-methylcyclopropyl)furo[2,3-d]pyrimidin-4-amine] | 10 to 100
14 | Cc1oc2ncnc(NC3(C)CC3)c2c1C(=O)N1CCC(c2ccncc2)C1 (centres unmarked) [Example 72, 6-Methyl-N-(1-methylcyclopropyl)-5-[3-(pyridin-4-yl)pyrrolidine-1-carbonyl]furo[2,3-d]pyrimidin-4-amine] | 10 to 100

Reference: US20250145633A1, “SUBSTITUTED FURANOPYRIMIDINE COMPOUNDS AS PDE1 INHIBITORS” (Dart NeuroScience, LLC, priority 2017, published 2025)
